Assay results: the NIST ThermoML archive (doi:10.1021/je800334m)
± gives the expanded uncertainty stated by the source.

Tests used:
[1] = Liquid
[2] = excess molar enthalpy (molar enthalpy of mixing); xn = mol fraction of the nth substance listed; conditions: Liquid

CN(C)CCO [2-(N,N-dimethylamino)ethanol]
molar volume ([1]; 298.15 K, 100 kPa): 0.0001009 ± 5e-08 m3/mol | molar volume ([1]; 298.15 K, 10000 kPa): 0.0001009 ± 7e-08 m3/mol | molar volume ([1]; 313.15 K, 100 kPa): 0.0001024 ± 5e-08 m3/mol | molar volume ([1]; 313.15 K, 10000 kPa): 0.0001024 ± 8e-08 m3/mol | molar volume ([1]; 328.15 K, 100 kPa): 0.0001039 ± 5e-08 m3/mol | molar volume ([1]; 328.15 K, 10000 kPa): 0.0001039 ± 9e-08 m3/mol

CN(C)CCO [2-(N,N-dimethylamino)ethanol] + CC(C)O
excess molar enthalpy ([2]; 298.2 K, 100 kPa, x1 = 0.1008): 0.0162 ± 0.0019 kJ/mol | excess molar enthalpy ([2]; 298.2 K, 100 kPa, x1 = 0.1502): 0.0279 ± 0.0021 kJ/mol | excess molar enthalpy ([2]; 298.2 K, 100 kPa, x1 = 0.1994): 0.0372 ± 0.0022 kJ/mol | excess molar enthalpy ([2]; 298.2 K, 100 kPa, x1 = 0.2501): 0.0433 ± 0.0023 kJ/mol | excess molar enthalpy ([2]; 298.2 K, 100 kPa, x1 = 0.3005): 0.0467 ± 0.0024 kJ/mol | excess molar enthalpy ([2]; 298.2 K, 100 kPa, x1 = 0.3504): 0.048 ± 0.0024 kJ/mol | excess molar enthalpy ([2]; 298.2 K, 100 kPa, x1 = 0.3999): 0.0476 ± 0.0024 kJ/mol | excess molar enthalpy ([2]; 298.2 K, 100 kPa, x1 = 0.4507): 0.0454 ± 0.0023 kJ/mol | excess molar enthalpy ([2]; 298.2 K, 100 kPa, x1 = 0.501): 0.042 ± 0.0023 kJ/mol | excess molar enthalpy ([2]; 298.2 K, 100 kPa, x1 = 0.5505): 0.0373 ± 0.0022 kJ/mol | excess molar enthalpy ([2]; 298.2 K, 100 kPa, x1 = 0.5993): 0.0328 ± 0.0021 kJ/mol | excess molar enthalpy ([2]; 298.2 K, 10000 kPa, x1 = 0.0998): 0.0136 ± 0.0018 kJ/mol | excess molar enthalpy ([2]; 298.2 K, 10000 kPa, x1 = 0.2005): 0.0345 ± 0.0022 kJ/mol | excess molar enthalpy ([2]; 298.2 K, 10000 kPa, x1 = 0.2496): 0.0401 ± 0.0023 kJ/mol | excess molar enthalpy ([2]; 298.2 K, 10000 kPa, x1 = 0.3): 0.0433 ± 0.0023 kJ/mol | excess molar enthalpy ([2]; 298.2 K, 10000 kPa, x1 = 0.35): 0.0447 ± 0.0023 kJ/mol | excess molar enthalpy ([2]; 298.2 K, 10000 kPa, x1 = 0.3995): 0.0446 ± 0.0023 kJ/mol | excess molar enthalpy ([2]; 298.2 K, 10000 kPa, x1 = 0.4504): 0.0431 ± 0.0023 kJ/mol | excess molar enthalpy ([2]; 298.2 K, 10000 kPa, x1 = 0.5006): 0.0406 ± 0.0022 kJ/mol | excess molar enthalpy ([2]; 298.2 K, 10000 kPa, x1 = 0.5501): 0.0372 ± 0.0022 kJ/mol | excess molar enthalpy ([2]; 298.2 K, 10000 kPa, x1 = 0.6009): 0.033 ± 0.0021 kJ/mol | excess molar enthalpy ([2]; 313.2 K, 100 kPa, x1 = 0.0496): -0.0169 ± 0.0018 kJ/mol | excess molar enthalpy ([2]; 313.2 K, 100 kPa, x1 = 0.1008): -0.0173 ± 0.0019 kJ/mol | excess molar enthalpy ([2]; 313.2 K, 100 kPa, x1 = 0.1502): -0.0127 ± 0.0018 kJ/mol | excess molar enthalpy ([2]; 313.2 K, 100 kPa, x1 = 0.1994): -0.007 ± 0.0018 kJ/mol | excess molar enthalpy ([2]; 313.2 K, 100 kPa, x1 = 0.2501): -0.0027 ± 0.0017 kJ/mol | excess molar enthalpy ([2]; 313.2 K, 100 kPa, x1 = 0.3005): 0.0009 ± 0.0017 kJ/mol | excess molar enthalpy ([2]; 313.2 K, 100 kPa, x1 = 0.3504): 0.0029 ± 0.0017 kJ/mol | excess molar enthalpy ([2]; 313.2 K, 100 kPa, x1 = 0.3999): 0.0034 ± 0.0017 kJ/mol | excess molar enthalpy ([2]; 313.2 K, 100 kPa, x1 = 0.4507): 0.003 ± 0.0017 kJ/mol | excess molar enthalpy ([2]; 313.2 K, 100 kPa, x1 = 0.501): 0.002 ± 0.0017 kJ/mol | excess molar enthalpy ([2]; 313.2 K, 100 kPa, x1 = 0.5505): -0.0005 ± 0.0017 kJ/mol | excess molar enthalpy ([2]; 313.2 K, 100 kPa, x1 = 0.5993): -0.0012 ± 0.0017 kJ/mol | excess molar enthalpy ([2]; 313.2 K, 10000 kPa, x1 = 0.0499): -0.0184 ± 0.0019 kJ/mol | excess molar enthalpy ([2]; 313.2 K, 10000 kPa, x1 = 0.0998): -0.0194 ± 0.0019 kJ/mol | excess molar enthalpy ([2]; 313.2 K, 10000 kPa, x1 = 0.1494): -0.0191 ± 0.0021 kJ/mol | excess molar enthalpy ([2]; 313.2 K, 10000 kPa, x1 = 0.2005): -0.0099 ± 0.0018 kJ/mol | excess molar enthalpy ([2]; 313.2 K, 10000 kPa, x1 = 0.2496): -0.0056 ± 0.0018 kJ/mol | excess molar enthalpy ([2]; 313.2 K, 10000 kPa, x1 = 0.3): -0.0025 ± 0.0017 kJ/mol | excess molar enthalpy ([2]; 313.2 K, 10000 kPa, x1 = 0.35): -0.0007 ± 0.0017 kJ/mol | excess molar enthalpy ([2]; 313.2 K, 10000 kPa, x1 = 0.3995): -0.0001 kJ/mol | excess molar enthalpy ([2]; 313.2 K, 10000 kPa, x1 = 0.4504): -0.0004 ± 0.0017 kJ/mol | excess molar enthalpy ([2]; 313.2 K, 10000 kPa, x1 = 0.5006): -0.0013 ± 0.0017 kJ/mol | excess molar enthalpy ([2]; 313.2 K, 10000 kPa, x1 = 0.5501): -0.0026 ± 0.0017 kJ/mol | excess molar enthalpy ([2]; 328.2 K, 100 kPa, x1 = 0.0499): -0.0359 ± 0.0021 kJ/mol | excess molar enthalpy ([2]; 328.2 K, 100 kPa, x1 = 0.1014): -0.0511 ± 0.0024 kJ/mol | excess molar enthalpy ([2]; 328.2 K, 100 kPa, x1 = 0.1511): -0.0566 ± 0.0025 kJ/mol | excess molar enthalpy ([2]; 328.2 K, 100 kPa, x1 = 0.2005): -0.0574 ± 0.0026 kJ/mol | excess molar enthalpy ([2]; 328.2 K, 100 kPa, x1 = 0.2513): -0.0566 ± 0.0026 kJ/mol | excess molar enthalpy ([2]; 328.2 K, 100 kPa, x1 = 0.3018): -0.0553 ± 0.0026 kJ/mol | excess molar enthalpy ([2]; 328.2 K, 100 kPa, x1 = 0.3519): -0.0543 ± 0.0026 kJ/mol | excess molar enthalpy ([2]; 328.2 K, 100 kPa, x1 = 0.4015): -0.0533 ± 0.0025 kJ/mol | excess molar enthalpy ([2]; 328.2 K, 100 kPa, x1 = 0.4524): -0.0518 ± 0.0025 kJ/mol | excess molar enthalpy ([2]; 328.2 K, 100 kPa, x1 = 0.5026): -0.0501 ± 0.0024 kJ/mol | excess molar enthalpy ([2]; 328.2 K, 100 kPa, x1 = 0.5522): -0.0481 ± 0.0024 kJ/mol | excess molar enthalpy ([2]; 328.2 K, 100 kPa, x1 = 0.6009): -0.0458 ± 0.0023 kJ/mol | excess molar enthalpy ([2]; 328.2 K, 100 kPa, x1 = 0.6508): -0.0429 ± 0.0023 kJ/mol | excess molar enthalpy ([2]; 328.2 K, 10000 kPa, x1 = 0.0499): -0.0392 ± 0.0022 kJ/mol | excess molar enthalpy ([2]; 328.2 K, 10000 kPa, x1 = 0.0998): -0.0539 ± 0.0025 kJ/mol | excess molar enthalpy ([2]; 328.2 K, 10000 kPa, x1 = 0.2005): -0.0607 ± 0.0027 kJ/mol | excess molar enthalpy ([2]; 328.2 K, 10000 kPa, x1 = 0.2496): -0.0598 ± 0.0027 kJ/mol | excess molar enthalpy ([2]; 328.2 K, 10000 kPa, x1 = 0.3): -0.0583 ± 0.0026 kJ/mol | excess molar enthalpy ([2]; 328.2 K, 10000 kPa, x1 = 0.35): -0.0566 ± 0.0026 kJ/mol | excess molar enthalpy ([2]; 328.2 K, 10000 kPa, x1 = 0.3995): -0.055 ± 0.0026 kJ/mol | excess molar enthalpy ([2]; 328.2 K, 10000 kPa, x1 = 0.4504): -0.0532 ± 0.0025 kJ/mol | excess molar enthalpy ([2]; 328.2 K, 10000 kPa, x1 = 0.5006): -0.0513 ± 0.0025 kJ/mol | excess molar enthalpy ([2]; 328.2 K, 10000 kPa, x1 = 0.5501): -0.0492 ± 0.0024 kJ/mol | excess molar enthalpy ([2]; 328.2 K, 10000 kPa, x1 = 0.6009): -0.0466 ± 0.0024 kJ/mol | excess molar enthalpy ([2]; 328.2 K, 10000 kPa, x1 = 0.6508): -0.0457 ± 0.0023 kJ/mol
